Data on three compounds can be found in ChEMBL document CHEMBL4411344, “Synthesis and biological evaluation of new long-chain squaramides as anti-chagasic agents in the BALB/c mouse model” (Bioorg Med Chem, 2019).

The source made the active and inactive calls. The rule behind the calls is not given here.

A short description of series [1]: Hepatotoxicity in Balb/c mouse infected with Trypanosoma cruzi MHOM/Pe/2011/Arequipa DTU 5 trypomastigotes assessed as increase in alkaline phosphatase level at 20 mg/kg, po once daily for 5 consecutive days starting from day 10 post infection measured on day 16 post infection relative to control. The following applies: in vivo. Format: toxicity, organism-based.

Series [2] in a line: Nephrotoxicity in Balb/c mouse infected with Trypanosoma cruzi MHOM/Pe/2011/Arequipa DTU 5 trypomastigotes assessed as decrease in serum uric acid level at 20 mg/kg, po once daily for 5 consecutive days starting from day 75 post infection measured on day 127 post infection relative to control. Type of series: toxicity, organism-based. The following applies: in vivo.
The nature of series [3]: Hepatotoxicity in Balb/c mouse infected with Trypanosoma cruzi MHOM/Pe/2011/Arequipa DTU 5 trypomastigotes assessed as increase in ratio of serum AST to GOT level at 20 mg/kg, po once daily for 5 consecutive days starting from day 10 post infection measured on day 127 post infection by biochemical analysis relative to control. Type of series: toxicity, organism-based. The following applies: in vivo.

Series [4] deals with Trypanosoma cruzi. Briefly: Antitrypanosomal activity against Trypanosoma cruzi MHOM/Pe/2011/Arequipa DTU 5 trypomastigotes infected in Balb/c mouse assessed as reduction in parasitaemia level at 20 mg/kg, po once daily for 5 consecutive days starting from day 10 post infection measured on day 40 post infection by Neubauer chamber method. Format: functional, organism-based.

Series [5] has as its system Trypanosoma cruzi. Briefly: Antitrypanosomal activity against Trypanosoma cruzi MHOM/Pe/2011/Arequipa DTU 5 trypomastigotes infected in Balb/c mouse assessed as reduction in parasitaemia level at 20 mg/kg, po once daily for 5 consecutive days starting from day 10 post infection measured on day 23 post infection by Neubauer chamber method relative to control. Also noted: scale not given: the % may be the effect or the level left. Format: functional.

Series [6] can be described thus: Hepatotoxicity in Balb/c mouse infected with Trypanosoma cruzi MHOM/Pe/2011/Arequipa DTU 5 trypomastigotes assessed as increase in alkaline phosphatase level at 20 mg/kg, po once daily for 5 consecutive days starting from day 75 post infection measured on day 81 post infection relative to control. Type of series: toxicity, organism-based. The following applies: in vivo.

Series [7] concerns Trypanosoma cruzi. Briefly: Trypanocidal activity against Trypanosoma cruzi TINF/CH/1956/Tulahuen DTU 6 amastigotes infected in African green monkey Vero cells after 72 hrs by Giemsa-staining based microscopic assay. Type of series: functional, organism-based. The following applies: TINF/CH/1956/Tulahuen DTU 6, Vero.
Series [8] deals with Superoxide dismutase [Cu-Zn] (Homo sapiens, UniProt P00441). Briefly: Inhibition of human erythrocyte CuZn-SOD by UV-Visible spectrophotometric method.
The test system of series [9] is Trypanosoma cruzi. Briefly: Trypanocidal activity against Trypanosoma cruzi TINF/CH/1956/Tulahuen DTU 6 epimastigotes after 72 hrs by resazurin dye based assay. Type of series: functional, organism-based. The following applies: TINF/CH/1956/Tulahuen DTU 6, 72 h. In general terms: Resazurin is reduced to fluorescent resorufin, in cell work by metabolically active cells.

A short description of series [10]: Selectivity index, ratio of IC50 for African green monkey Vero cells to IC50 for Trypanosoma cruzi TINF/CH/1956/Tulahuen DTU 6 trypomastigotes derived from infected Balb/c mouse. Format: toxicity. The conditions noted are these: read-out: Ratio IC50.
Series [11] in a line: Hepatotoxicity in Balb/c mouse infected with Trypanosoma cruzi MHOM/Pe/2011/Arequipa DTU 5 trypomastigotes assessed as change in total bilirubin level at 20 mg/kg, po once daily for 5 consecutive days starting from day 10 post infection measured on day 127 post infection by biochemical analysis (reference value: 0.21 mg/dl). Format: toxicity, organism-based. The conditions noted are these: in vivo.

The test system of series [12] is Trypanosoma cruzi. Briefly: Antitrypanosomal activity against Trypanosoma cruzi MHOM/Pe/2011/Arequipa DTU 5 epimastigotes assessed as effect on parasite glycolytic pathway by measuring increase in glycerol excretion at IC25 after 72 hrs by 1H NMR method. Type of series: functional.
A short description of series [13]: Selectivity index, ratio of IC50 for African green monkey Vero cells to IC50 for Trypanosoma cruzi TINF/CH/1956/Tulahuen DTU 6 amastigotes infected in African green monkey Vero cells. Format: toxicity. The following applies: read-out: Ratio IC50.
The next series concerns Vero. Briefly: Cytotoxicity against African green monkey Vero cells assessed as reduction in cell viability after 72 hrs by resazurin dye based assay. The following applies: Chlorocebus sabaeus.
Series [14] is described as follows: Selectivity index, ratio of IC50 for African green monkey Vero cells to IC50 for Trypanosoma cruzi TINF/CH/1956/Tulahuen DTU 6 epimastigotes. The conditions noted are these: read-out: Ratio IC50. Type of series: toxicity.
The nature of series [15]: Selectivity index, ratio of IC50 for African green monkey Vero cells to IC50 for Trypanosoma cruzi IRHOD/CO/2008/SN3 DTU 1 trypomastigotes derived from infected Balb/c mouse. Format: toxicity. The conditions noted are these: read-out: Ratio IC50.
In series [16] the test system is Trypanosoma cruzi. Briefly: Trypanocidal activity against Trypanosoma cruzi MHOM/Pe/2011/Arequipa DTU 5 epimastigotes after 72 hrs by resazurin dye based assay. Format: functional, organism-based. The conditions noted are these: MHOM/Pe/2011/Arequipa DTU 5, 72 h.
Series [17] is described as follows: Nephrotoxicity in Balb/c mouse infected with Trypanosoma cruzi MHOM/Pe/2011/Arequipa DTU 5 trypomastigotes assessed as decrease in serum uric acid level at 20 mg/kg, po once daily for 5 consecutive days starting from day 75 post infection measured on day 81 post infection relative to control. Type of series: toxicity, organism-based. The following applies: in vivo.

The subject of series [18] is Trypanosoma cruzi. Briefly: Trypanocidal activity against Trypanosoma cruzi MHOM/Pe/2011/Arequipa DTU 5 amastigotes infected in African green monkey Vero cells after 72 hrs by Giemsa-staining based microscopic assay. The conditions noted are these: MHOM/Pe/2011/Arequipa DTU 5, Vero. Type of series: functional, organism-based.
In series [19] the test system is Trypanosoma cruzi. Briefly: Trypanocidal activity against Trypanosoma cruzi IRHOD/CO/2008/SN3 DTU 1 epimastigotes after 72 hrs by resazurin dye based assay. Format: functional, organism-based. The following applies: IRHOD/CO/2008/SN3 DTU 1, 72 h.
The nature of series [20]: Selectivity index, ratio of IC50 for African green monkey Vero cells to IC50 for Trypanosoma cruzi MHOM/Pe/2011/Arequipa DTU 5 amastigotes infected in African green monkey Vero cells. Type of series: toxicity. The following applies: read-out: Ratio IC50.
Series [21] deals with Trypanosoma cruzi. Briefly: Antitrypanosomal activity against Trypanosoma cruzi MHOM/Pe/2011/Arequipa DTU 5 epimastigotes assessed as effect on parasite glycolytic pathway by measuring increase in succinate excretion at IC25 after 72 hrs by 1H NMR method. Format: functional, organism-based.
Series [22] is described as follows: Selectivity index, ratio of IC50 for African green monkey Vero cells to IC50 for Trypanosoma cruzi IRHOD/CO/2008/SN3 DTU 1 epimastigotes. Format: toxicity. The conditions noted are these: read-out: Ratio IC50.
For series [23], the system named is Trypanosoma cruzi. Briefly: Antitrypanosomal activity against Trypanosoma cruzi MHOM/Pe/2011/Arequipa DTU 5 trypomastigotes infected in Balb/c mouse assessed as reduction in parasitaemia level at 20 mg/kg, po once daily for 5 consecutive days starting from day 10 post infection measured every 2 to 3 days up to day 50 post infection starting from day 7 post infection by Neubauer chamber method. Type of series: functional, organism-based.

Series [24] deals with Trypanosoma cruzi. Briefly: Trypanocidal activity against Trypanosoma cruzi IRHOD/CO/2008/SN3 DTU 1 amastigotes infected in African green monkey Vero cells after 72 hrs by Giemsa-staining based microscopic assay. The following applies: IRHOD/CO/2008/SN3 DTU 1, Vero. Format: functional, organism-based.
A short description of series [25]: Selectivity index, ratio of IC50 for African green monkey Vero cells to IC50 for Trypanosoma cruzi MHOM/Pe/2011/Arequipa DTU 5 trypomastigotes derived from infected Balb/c mouse. Type of series: toxicity. The following applies: read-out: Ratio IC50.
Series [26] in a line: Selectivity index, ratio of IC50 for African green monkey Vero cells to IC50 for Trypanosoma cruzi MHOM/Pe/2011/Arequipa DTU 5 epimastigotes. Type of series: toxicity. The following applies: read-out: Ratio IC50.
Series [27] relates to Trypanosoma cruzi. Briefly: Trypanocidal activity against Trypanosoma cruzi MHOM/Pe/2011/Arequipa DTU 5 amastigotes infected in African green monkey Vero cells assessed as reduction in infected cells after 72 hrs by Giemsa-staining based assay. Format: functional, organism-based. The conditions noted are these: MHOM/Pe/2011/Arequipa DTU 5, Vero.
The test system of series [28] is Trypanosoma cruzi. Briefly: Trypanocidal activity against Trypanosoma cruzi IRHOD/CO/2008/SN3 DTU 1 trypomastigotes derived from infected Balb/c mouse after 72 hrs by resazurin dye based assay. Type of series: functional, organism-based. The following applies: IRHOD/CO/2008/SN3 DTU 1, 72 h.
Series [29] has as its system Trypanosoma cruzi. Briefly: Trypanocidal activity against Trypanosoma cruzi MHOM/Pe/2011/Arequipa DTU 5 trypomastigotes derived from infected Balb/c mouse after 72 hrs by resazurin dye based assay. Type of series: functional, organism-based. The following applies: MHOM/Pe/2011/Arequipa DTU 5, 72 h.

Superoxide dismutase [Cu-Zn], sequence (P00441 whole entry): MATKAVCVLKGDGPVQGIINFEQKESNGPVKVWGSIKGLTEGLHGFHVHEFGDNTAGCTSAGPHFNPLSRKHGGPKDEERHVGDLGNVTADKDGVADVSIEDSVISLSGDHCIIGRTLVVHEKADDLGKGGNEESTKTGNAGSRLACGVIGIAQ

Regarding `O=C(Cn1ccnc1[N+](=O)[O-])NCc1ccccc1` [BENZNIDAZOLE], the Activity in [1] was 20 to 30 U/L; in series [2], 10 to 20 mg/dL; in series [3] it was more than 40 U/L; in the series on Trypanosoma cruzi [5], 70%; in series [6] it was more than 40 U/L. The result in the series with Trypanosoma cruzi [4] was Active.

Take `CCCCCCCCCCCCCCCCNc1c(N(C)CCCN(C)C)c(=O)c1=O`: the IC50 is 6.4 µM in the series with Trypanosoma cruzi [7]; more than 100 µM in [8]; 9.5 µM with Trypanosoma cruzi [9]; 679 µM with Vero; 7.3 µM in the series with Trypanosoma cruzi [16]; 0.2 µM in the series on Trypanosoma cruzi [18]. Further, the IC50 was 16 µM in the series with Trypanosoma cruzi [19]; 18.9 µM in the series on Trypanosoma cruzi [24]; 5.6 µM with Trypanosoma cruzi [27]; 5.4 µM with Trypanosoma cruzi [28]; 4.4 µM in the series on Trypanosoma cruzi [29]. For the same compound, the selectivity ratio was 144 in series [10]; 106 in series [13]; 71.1 in series [14]; 126 in [15]; 3090 in series [20]; 42.5 in [22]. Further, the selectivity ratio stood at 154 in series [25] and 93.1 in [26]. Moreover, the Activity in [11] is 0.21 mg/dL; with Trypanosoma cruzi [12], 43%; in series [17], 20 to 30 mg/dL; in the series with Trypanosoma cruzi [5] it was 80%; in series [6] it was 10 to 20 U/L. Further, the result in the series with Trypanosoma cruzi [4], with Trypanosoma cruzi [21] and in the series with Trypanosoma cruzi [23] was Active.

As for `CCCCCCNc1c(N(C)CCCN(C)C)c(=O)c1=O`, the IC50 in the series with Trypanosoma cruzi [7] is 38.3 µM; in series [8] it was more than 100 µM; in the series with Trypanosoma cruzi [9] it was 14.7 µM; in the series with Vero, 900 µM; in the series with Trypanosoma cruzi [16], 20.3 µM; in the series on Trypanosoma cruzi [18], 17.3 µM. For the same compound, the half-maximal inhibitory concentration (IC50) in the series with Trypanosoma cruzi [19] turned out to be 14.3 µM; in the series with Trypanosoma cruzi [24], 50 µM; in the series on Trypanosoma cruzi [27], 60.5 µM; with Trypanosoma cruzi [28], 15.8 µM; with Trypanosoma cruzi [29] it was 6.5 µM. Also, the Activity in series [1] was 10 to 20 U/L; in [11] it was 0.21 mg/dL; in series [2] it was 10 to 20 mg/dL; in series [3], 20 to 30 U/L; in [17], 10 to 20 mg/dL. For the same compound, the selectivity ratio in series [10] was found to be 52.2; in series [13] it was 23.5; in series [14] it was 61.3; in series [15], 57; in series [20] it was 52.1; in series [22], 63. The values for the selectivity ratio in series [25] and in series [26] were 139 and 44.3, respectively. The result in the series with Trypanosoma cruzi [12] and in the series with Trypanosoma cruzi [21] was Active. Moreover, the outcome with Trypanosoma cruzi [23] was inactive.

A word on the IC50: it is the concentration needed to halve the response being measured.
